The source of these data is PubChem BioAssay (NCI).

Among the test systems are EKVX NSCLC; HCC-2998 colon; KM12 colon; OVCAR-3 ovarian; OVCAR-5 ovarian; RPMI-8226 leukemia; RXF 393 renal; SF-268 CNS; T-47D breast; UACC-62 melanoma.
Common to all, as to assay: growth of human tumour cells (NCI), 48 h

“And” between values parts separate entries of the source, which are not always exact repeats. Identical values can stand only once.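 Dose response: 5 concentrations. Exposure: 48 h. Format: 96-well plates. Endpoint: linear interpolation; highest concentration if not reached. At the GI50, growth is halved. TGI is the concentration that stops growth completely.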

Turning to `O=C(N/N=C/c1ccc(F)cc1)c1ccc(C(F)(F)F)nc1Nc1cccc(C(F)(F)F)c1`, the GI50 in the test on EKVX NSCLC is 0.713 µM; with HCC-2998 colon it was 0.902 µM; with KM12 colon, 1.38 µM; with OVCAR-3 ovarian, 0.254 µM; in the test on OVCAR-5 ovarian, 1.34 µM; in the test with RPMI-8226 leukemia, 1.07 µM. Besides, the GI50 with RXF 393 renal was 0.457 µM; in the test on SF-268 CNS, 0.465 µM; in the test on T-47D breast, 1.02 µM; with UACC-62 melanoma it was 1.66 µM. For the same compound, the TGI with EKVX NSCLC came out at 4.64 µM; in the test on HCC-2998 colon, 4.96 µM; in the test on KM12 colon, 3.76 µM; in the test with OVCAR-3 ovarian it was 0.713 µM; in the test on OVCAR-5 ovarian, 9.12 µM; with RPMI-8226 leukemia it was 3.34 µM. Further, the TGI with RXF 393 renal came to 2.72 µM; in the test on SF-268 CNS, 2.34 µM; with T-47D breast, 4.39 µM; in the test on UACC-62 melanoma, 5.77 µM.
In the case of `CNCc1cccc2c1OCCOCCOCCC(C)S(=O)(=O)c1ccc(cc1)-c1cnc(N)c(n1)C(=O)N2` (configuration not stated), the GI50 with EKVX NSCLC is 4.46 µM; with HCC-2998 colon, 4.53 µM; in the test on KM12 colon, 1.69 µM; in the test with OVCAR-3 ovarian it was 1.16 µM; with OVCAR-5 ovarian, 3.82 µM; with RPMI-8226 leukemia, 2.05 µM. For the same compound, the GI50 with RXF 393 renal was 0.175 µM; with SF-268 CNS it was 1.18 µM; in the test with T-47D breast, 3.62 µM; with UACC-62 melanoma, 1.67 µM. Further, the TGI turned out to be 18.6 µM in the test with EKVX NSCLC; 17.2 µM with HCC-2998 colon; 6.78 µM with KM12 colon; 2.59 µM in the test on OVCAR-3 ovarian; 11.4 µM in the test with OVCAR-5 ovarian; 5.12 µM with RPMI-8226 leukemia. Besides, the TGI in the test on RXF 393 renal amounted to 1.6 µM; in the test on SF-268 CNS, 3.33 µM; in the test with T-47D breast, 18.7 µM; with UACC-62 melanoma, 3.3 µM.
With `O=NN(CCCl)C(=O)NC1CCCCC1`, the GI50 is 92.3 µM with EKVX NSCLC; 34.5 µM and 64.6 µM with HCC-2998 colon; 17.5 µM and 82.1 µM with KM12 colon; 13.5 µM in the test with OVCAR-3 ovarian; 247 µM in the test with OVCAR-5 ovarian; 27.1 µM in the test on RPMI-8226 leukemia. Further, the GI50 in the test on RXF 393 renal is 18.1 µM and 76.4 µM; with SF-268 CNS, 21 µM and 33.6 µM; in the test with UACC-62 melanoma it was 7.68 µM. Also, the TGI is 160 µM and 224 µM in the test with EKVX NSCLC; 123 µM and 101 µM in the test with HCC-2998 colon; 47.4 µM and 158 µM and 200 µM in the test on KM12 colon; 34.5 µM and 142 µM in the test on OVCAR-3 ovarian; 168 µM and 363 µM in the test on OVCAR-5 ovarian; 40.8 µM and 122 µM and 73.9 µM in the test with RPMI-8226 leukemia. Moreover, the TGI with RXF 393 renal is 32.9 µM and 102 µM and 143 µM; in the test on SF-268 CNS it was 57.9 µM and 120 µM and 235 µM; with T-47D breast it was 166 µM; in the test on UACC-62 melanoma, 24.2 µM and 72 µM and 77.3 µM.
Consider `COc1ccc(/C(C)=C(\c2ccc(Cl)cc2)c2ccc(OCCN3CCCCCC3)cc2)cc1F`, for which the GI50 with EKVX NSCLC was 5.54 µM; with HCC-2998 colon it was 3.81 µM; with KM12 colon, 1.7 µM; with OVCAR-3 ovarian it was 2.98 µM; with OVCAR-5 ovarian, 2.95 µM; in the test with RPMI-8226 leukemia, 3.63 µM. The GI50 is 2.55 µM with RXF 393 renal, 6.42 µM in the test with SF-268 CNS, 3.47 µM with T-47D breast and 3.52 µM with UACC-62 melanoma. Besides, the TGI in the test on EKVX NSCLC is greater than 16.7 µM; with HCC-2998 colon it was 9.38 µM; with KM12 colon, 7.04 µM; in the test on OVCAR-3 ovarian it was 5.89 µM; in the test with OVCAR-5 ovarian, 8.18 µM; in the test with RPMI-8226 leukemia it was 9.92 µM. Besides, the TGI with RXF 393 renal is 5.17 µM; with SF-268 CNS, greater than 16.7 µM; in the test on T-47D breast, 15.1 µM; in the test with UACC-62 melanoma, 8.02 µM.
`CC1OC(OC2C(O[C@H]3CC[C@@]4(C)C(=CC[C@H]5[C@@H]6C[C@@H]7O[C@]8(CC[C@@H](C)CO8)[C@@H](C)[C@@H]7[C@@]6(C)CC[C@@H]54)C3)OC(CO)C(OC3OC(CO)C(O)C3O)C2O)C(O)C(O)C1O` (some centres not stated): the GI50 is 1.05 µM in the test on EKVX NSCLC; 0.287 µM in the test with KM12 colon; 1.49 µM with OVCAR-3 ovarian; 1.32 µM in the test on OVCAR-5 ovarian; 0.212 µM in the test on RPMI-8226 leukemia; 0.294 µM in the test with RXF 393 renal. Moreover, the GI50 was 1.39 µM with T-47D breast and 0.349 µM with UACC-62 melanoma. Besides, the TGI in the test on EKVX NSCLC was 1.77 µM and 2.23 µM; in the test with HCC-2998 colon it was 1.19 µM; with KM12 colon it was 2.39 µM and 0.849 µM; in the test with OVCAR-3 ovarian it was 1.79 µM and 2.82 µM; with OVCAR-5 ovarian, 1.53 µM and 2.59 µM; in the test with RPMI-8226 leukemia, 2.71 µM and 0.586 µM. Further, the TGI in the test on RXF 393 renal is 1.83 µM and 0.962 µM; in the test with SF-268 CNS, 1.61 µM and 2.03 µM; in the test with T-47D breast, 2.68 µM; in the test on UACC-62 melanoma, 1.5 µM and 1.07 µM.
Consider `CC1=C(CNO)C2=C(C)C3(CC3)[C@@](C)(O)C(=O)C2=C1`, for which the GI50 with EKVX NSCLC was 2.22 µM; in the test with HCC-2998 colon, 1.5 µM; in the test with KM12 colon, 3.72 µM; in the test on OVCAR-3 ovarian, 1.49 µM; in the test with OVCAR-5 ovarian it was 1.4 µM; in the test on RPMI-8226 leukemia, 21.1 µM. The GI50 in the test on RXF 393 renal is 0.726 µM; in the test on SF-268 CNS, 0.766 µM; in the test on T-47D breast it was 1.21 µM; with UACC-62 melanoma, 1.8 µM. The TGI with EKVX NSCLC turned out to be 5.98 µM; in the test with HCC-2998 colon it was 3.76 µM; in the test on KM12 colon, 27.4 µM; in the test with OVCAR-3 ovarian, 6.26 µM; in the test on OVCAR-5 ovarian, 17.4 µM; in the test on RPMI-8226 leukemia, 72.9 µM. Also, the TGI in the test with RXF 393 renal amounted to 2.41 µM; with SF-268 CNS, 9.89 µM; with T-47D breast, 8.47 µM; in the test on UACC-62 melanoma, 3.73 µM.
In the case of `O=c1nc2[nH]c3c(-c4n[nH]c(=O)[nH]c4=O)cccc3c2n[nH]1`, the GI50 with EKVX NSCLC, with HCC-2998 colon, in the test with KM12 colon, with OVCAR-3 ovarian, in the test on OVCAR-5 ovarian and in the test with RPMI-8226 leukemia was greater than 100 µM each time. In addition, the GI50 in the test on RXF 393 renal, with SF-268 CNS, in the test with T-47D breast and with UACC-62 melanoma was greater than 100 µM throughout. Also, the TGI in the test on EKVX NSCLC, in the test with HCC-2998 colon, with KM12 colon, in the test with OVCAR-3 ovarian, in the test on OVCAR-5 ovarian and in the test with RPMI-8226 leukemia was greater than 100 µM in each case. Moreover, the TGI with RXF 393 renal, in the test on SF-268 CNS, in the test on T-47D breast and in the test with UACC-62 melanoma was greater than 100 µM each time.
